The source made the active and inactive calls. How the calls were made is not given here.
Test system: CCRIS mutagenicity, Ames/micronucleus/aberration tests
Assay: CCRIS mutagenicity studies
[1] = Test System: AMES SALMONELLA TYPHIMURIUM, Strain/Indicator: TA98, Metabolic Activation: NONE, Method: STANDARD PLATE
[2] = Test System: AMES SALMONELLA TYPHIMURIUM, Strain/Indicator: TA98, Metabolic Activation: RAT, LIVER, S-9, AROCLOR 1254, Method: STANDARD PLATE
[3] = Test System: AMES SALMONELLA TYPHIMURIUM, Strain/Indicator: TA100, Metabolic Activation: NONE, Method: STANDARD PLATE
[4] = Test System: AMES SALMONELLA TYPHIMURIUM, Strain/Indicator: TA100, Metabolic Activation: RAT, LIVER, S-9, AROCLOR 1254, Method: STANDARD PLATE
[5] = Test System: AMES SALMONELLA TYPHIMURIUM, Strain/Indicator: TA98, Metabolic Activation: NONE, Method: PREINCUBATION
[6] = Test System: AMES SALMONELLA TYPHIMURIUM, Strain/Indicator: TA100, Metabolic Activation: NONE, Method: PREINCUBATION

Measured: mutagenic call

CCC(CCCC(=O)O)COC(=O)c1ccccc1C(=O)O (stereo not drawn)
inactive: Test System: AMES SALMONELLA TYPHIMURIUM, Strain/Indicator: TA97, Metabolic Activation: NONE, Method: STANDARD PLATE inactive; negative | Test System: AMES SALMONELLA TYPHIMURIUM, Strain/Indicator: TA97, Metabolic Activation: RAT, LIVER, S-9, AROCLOR 1254, Method: STANDARD PLATE inactive; negative | Test System: AMES SALMONELLA TYPHIMURIUM, Strain/Indicator: TA97, Metabolic Activation: RAT, LIVER, S-9, DI(2-ETHYLHEXYL)PHTHALATE, Method: STANDARD PLATE inactive; negative | [1] inactive; negative | [2] inactive; negative | Test System: AMES SALMONELLA TYPHIMURIUM, Strain/Indicator: TA98, Metabolic Activation: RAT, LIVER, S-9, DI(2-ETHYLHEXYL)PHTHALATE, Method: STANDARD PLATE inactive; negative | [3] inactive; negative | [4] inactive; negative | Test System: AMES SALMONELLA TYPHIMURIUM, Strain/Indicator: TA100, Metabolic Activation: RAT, LIVER, S-9, DI(2-ETHYLHEXYL)PHTHALATE, Method: STANDARD PLATE inactive; negative | Test System: AMES SALMONELLA TYPHIMURIUM, Strain/Indicator: TA102, Metabolic Activation: NONE, Method: STANDARD PLATE inactive; negative | Test System: AMES SALMONELLA TYPHIMURIUM, Strain/Indicator: TA102, Metabolic Activation: RAT, LIVER, S-9, AROCLOR 1254, Method: STANDARD PLATE inactive; negative | Test System: AMES SALMONELLA TYPHIMURIUM, Strain/Indicator: TA102, Metabolic Activation: RAT, LIVER, S-9, DI(2-ETHYLHEXYL)PHTHALATE, Method: STANDARD PLATE inactive; negative

CCC(=O)OCc1ccccc1[N+](=O)[O-]
inactive: [5] inactive; negative | [6] inactive; negative | Test System: AMES SALMONELLA TYPHIMURIUM, Strain/Indicator: TA100, Metabolic Activation: RAT, LIVER, S-9, AROCLOR 1254, Method: PREINCUBATION inactive; negative

Nc1ccc2ccccc2c1N=Nc1ccc([N+](=O)[O-])cc1
active: Test System: AMES SALMONELLA TYPHIMURIUM, Strain/Indicator: TA97, Metabolic Activation: HAMSTER, LIVER, S-9, AROCLOR 1254 (10%), Method: PREINCUBATION active; positive | Test System: AMES SALMONELLA TYPHIMURIUM, Strain/Indicator: TA97, Metabolic Activation: NONE, Method: PREINCUBATION active; positive | Test System: AMES SALMONELLA TYPHIMURIUM, Strain/Indicator: TA97, Metabolic Activation: RAT, LIVER, S-9, AROCLOR 1254 (10%), Method: PREINCUBATION active; positive | Test System: AMES SALMONELLA TYPHIMURIUM, Strain/Indicator: TA98, Metabolic Activation: HAMSTER, LIVER, S-9, AROCLOR 1254 (10%), Method: PREINCUBATION active; positive | [5] active; positive | Test System: AMES SALMONELLA TYPHIMURIUM, Strain/Indicator: TA98, Metabolic Activation: RAT, LIVER, S-9, AROCLOR 1254 (10%), Method: PREINCUBATION active; positive | Test System: AMES SALMONELLA TYPHIMURIUM, Strain/Indicator: TA100, Metabolic Activation: HAMSTER, LIVER, S-9, AROCLOR 1254 (10%), Method: PREINCUBATION active; positive | Test System: AMES SALMONELLA TYPHIMURIUM, Strain/Indicator: TA100, Metabolic Activation: RAT, LIVER, S-9, AROCLOR 1254 (10%), Method: PREINCUBATION active; positive
inactive: [6] inactive; negative | Test System: AMES SALMONELLA TYPHIMURIUM, Strain/Indicator: TA1535, Metabolic Activation: HAMSTER, LIVER, S-9, AROCLOR 1254 (10%), Method: PREINCUBATION inactive; negative | Test System: AMES SALMONELLA TYPHIMURIUM, Strain/Indicator: TA1535, Metabolic Activation: NONE, Method: PREINCUBATION inactive; negative | Test System: AMES SALMONELLA TYPHIMURIUM, Strain/Indicator: TA1535, Metabolic Activation: RAT, LIVER, S-9, AROCLOR 1254 (10%), Method: PREINCUBATION inactive; negative

CC1=CC=C(C(C)C)CC1
inactive: Test System: AMES SALMONELLA TYPHIMURIUM, Strain/Indicator: TA97A, Metabolic Activation: NONE, Method: STANDARD PLATE inactive; negative | Test System: AMES SALMONELLA TYPHIMURIUM, Strain/Indicator: TA97A, Metabolic Activation: RAT, LIVER, S-9, AROCLOR 1254, Method: STANDARD PLATE inactive; negative | [1] inactive; negative | [2] inactive; negative | [3] inactive; negative | [4] inactive; negative | Test System: AMES SALMONELLA TYPHIMURIUM, Strain/Indicator: TA1535, Metabolic Activation: NONE, Method: STANDARD PLATE inactive; negative | Test System: AMES SALMONELLA TYPHIMURIUM, Strain/Indicator: TA1535, Metabolic Activation: RAT, LIVER, S-9, AROCLOR 1254, Method: STANDARD PLATE inactive; negative

O=S(=O)(O)c1cc(S(=O)(=O)O)c2c(N=Nc3ccc(S(=O)(=O)O)c4ccccc34)c(O)ccc2c1
inactive: End Point: IN VIVO MICRONUCLEUS, Test System: BONE MARROW POLYCHROMATIC ERYTHROCYTES, Species: MOUSE, Strain/Sex: DDY/MALE, Route: IP inactive; negative | [5] inactive; negative | Test System: AMES SALMONELLA TYPHIMURIUM, Strain/Indicator: TA98, Metabolic Activation: S-9, Method: PREINCUBATION inactive; negative | [6] inactive; negative | Test System: AMES SALMONELLA TYPHIMURIUM, Strain/Indicator: TA100, Metabolic Activation: S-9, Method: PREINCUBATION inactive; negative | Test System: Mouse lymphoma, Strain/Indicator: L5178Y (tk+/tk-), Metabolic Activation: None, Method: Suspension/plate inactive; negative | Test System: Mouse lymphoma, Strain/Indicator: L5178Y (tk+/tk-), Metabolic Activation: Rat, Liver, S-9, Aroclor 1254, Method: Suspension/plate inactive; inconclusive (previous evaluation negative) | Test System: UDS RODENT HEPATOCYTES, Strain/Indicator: THY INCORP, Metabolic Activation: NONE, Method: AUTORADIOGRAPHY inactive; negative

Source: PubChem BioAssay AID1259407 (Chemical Carcinogenesis Research Information System (CCRIS), 2018)
